Residues, ends and D or L forms follow the SMILES beside them.
Assays:
[1] = tested on: Mus musculus; experiment: Antidiabetic activity in Nicotinamide/Streptozotocin induced male Balb/c mouse model assessed as change in body weight at 63.81 ug/kg, ip measured immediately (reference value: 25.08 +/- 1.25 g); format: functional; conditions: dose 63.81 µg/kg
[2] = molecular target: T1, Albumin (Homo sapiens, UniProt P02768); experiment: Inhibition of D-glucose glycation in human serum albumin model by measuring ketoamine moieties incubated for 7 days by Nitroblue tetrazolium (NBT) reduction assay (reference value: 35.92 nmol/mL); conditions: 168 h, time 7 day
T1 sequence (P02768 whole entry): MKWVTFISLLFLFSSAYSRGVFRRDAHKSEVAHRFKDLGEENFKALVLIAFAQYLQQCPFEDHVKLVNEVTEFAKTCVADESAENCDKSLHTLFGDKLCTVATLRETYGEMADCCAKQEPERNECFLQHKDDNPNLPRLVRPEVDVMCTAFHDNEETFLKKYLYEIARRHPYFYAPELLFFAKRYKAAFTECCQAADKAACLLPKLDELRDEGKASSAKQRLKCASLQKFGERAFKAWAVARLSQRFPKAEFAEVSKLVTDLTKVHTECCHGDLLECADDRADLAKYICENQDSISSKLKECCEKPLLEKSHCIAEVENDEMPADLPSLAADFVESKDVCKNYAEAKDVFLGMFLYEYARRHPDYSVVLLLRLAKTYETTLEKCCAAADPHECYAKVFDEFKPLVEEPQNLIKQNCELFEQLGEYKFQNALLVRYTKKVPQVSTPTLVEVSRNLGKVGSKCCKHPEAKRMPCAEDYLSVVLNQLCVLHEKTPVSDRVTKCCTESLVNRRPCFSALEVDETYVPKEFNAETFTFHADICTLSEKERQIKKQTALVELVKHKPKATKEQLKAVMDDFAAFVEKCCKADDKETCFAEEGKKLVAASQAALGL

[3] = tested on: Mus musculus; experiment: Antidiabetic activity in Nicotinamide/Streptozotocin induced male Balb/c mouse model assessed as reduction in Triglycerides level in blood at 63.81 ug/kg, ip treated for 21 days (reference value: 61 +/- 3.05 mg/dL); format: functional; conditions: dose 63.81 µg/kg, time 21 day
[4] = tested on: Mus musculus; experiment: Antidiabetic activity in Nicotinamide/Streptozotocin induced male Balb/c mouse model assessed as TC/HDL-Cholesterol ratio in blood at 63.81 ug/kg, ip treated for 21 days (reference value: 4.03); format: functional; conditions: dose 63.81 µg/kg, time 21 day
[5] = tested on: Mus musculus; experiment: Antidiabetic activity in Nicotinamide/Streptozotocin induced male Balb/c mouse model assessed as change in body weight at 63.81 ug/kg, ip treated for 21 days (reference value: 16.62 +/- 0.83 g); format: functional; conditions: dose 63.81 µg/kg, time 21 day
[6] = molecular target: T1, Albumin; experiment: Inhibition of D-glucose glycation in human serum albumin model by measuring ketoamine moieties incubated for 14 days by Nitroblue tetrazolium (NBT) reduction assay (reference value: 28.69 nmol/mL); conditions: 336 h, time 14 day
[7] = tested on: Mus musculus; experiment: Antidiabetic activity in Nicotinamide/Streptozotocin induced male Balb/c mouse model assessed as reduction in alanine aminotransferase level in blood at 63.81 ug/kg, ip treated for 21 days (reference value: 111 +/- 5.05 U/L); format: functional; conditions: dose 63.81 µg/kg, time 21 day
[8] = molecular target: T1, Albumin; experiment: Inhibition of D-fructose glycation in human serum albumin model by measuring ketoamine moieties incubated for 26 days by Nitroblue tetrazolium (NBT) reduction assay (reference value: 118.21 nmol/mL); conditions: 624 h, time 26 day
[9] = molecular target: T1, Albumin; experiment: Inhibition of D-fructose glycation in human serum albumin model by measuring ketoamine moieties incubated for 3 days by Nitroblue tetrazolium (NBT) reduction assay (reference value: 152.64 nmol/mL); conditions: 72 h, time 3 day
[10] = tested on: Mus musculus; experiment: Antidiabetic activity in Nicotinamide/Streptozotocin induced male Balb/c mouse model assessed as reduction in HbA1c levels at 63.81 ug/kg, ip treated for 21 days by Turbidimetric immunoassay; format: functional; set-up: scale not given: the % may be the effect or the level left; conditions: dose 63.81 µg/kg, time 21 day
[11] = molecular target: T1, Albumin; experiment: Inhibition of D-fructose glycation in human serum albumin model by measuring absorbance at 279 nm incubated for 5 days by UV spectroscopic analysis (reference value: 1.056); conditions: 120 h, time 5 day
[12] = tested on: Mus musculus; experiment: Antidiabetic activity in Nicotinamide/Streptozotocin induced male Balb/c mouse model assessed as reduction in fasting blood glucose levels at 63.81 ug/kg, ip measured immediately by glucometer analysis (reference value: 127.50 +/- 6.87 mg/dl); format: functional; conditions: dose 63.81 µg/kg
[13] = molecular target: T1, Albumin; experiment: Inhibition of D-fructose glycation in human serum albumin model by measuring ketoamine moieties incubated for 14 days by Nitroblue tetrazolium (NBT) reduction assay (reference value: 129.58 nmol/mL); conditions: 336 h, time 14 day
[14] = molecular target: T1, Albumin; experiment: Inhibition of D-glucose glycation in human serum albumin model by measuring absorbance at 279 nm incubated for 33 days by UV spectroscopic analysis (reference value: 1.997); conditions: 792 h, time 33 day
[15] = molecular target: T1, Albumin; experiment: Inhibition of D-glucose glycation in human serum albumin model by measuring ketoamine moieties incubated for 5 days by Nitroblue tetrazolium (NBT) reduction assay (reference value: 18.58 nmol/mL); conditions: 120 h, time 5 day
[16] = molecular target: T1, Albumin; experiment: Inhibition of D-glucose glycation in human serum albumin model by measuring ketoamine moieties incubated for 33 days by Nitroblue tetrazolium (NBT) reduction assay (reference value: 66.64 nmol/mL); conditions: 792 h, time 33 day
[17] = tested on: Mus musculus; experiment: Antidiabetic activity in Nicotinamide/Streptozotocin induced male Balb/c mouse model assessed as reduction in total cholesterol level in blood at 63.81 ug/kg, ip treated for 21 days (reference value: 121 +/- 6.05 mg/dL); format: functional; conditions: dose 63.81 µg/kg, time 21 day
[18] = molecular target: T1, Albumin; experiment: Inhibition of D-fructose glycation in human serum albumin model by measuring absorbance at 279 nm incubated for 3 days by UV spectroscopic analysis (reference value: 0.492); conditions: 72 h, time 3 day
[19] = molecular target: Alpha glucosidase (Homo sapiens, UniProt O43451+P10253+P14410+Q2M2H8); experiment: Inhibition of Alpha-glucosidase (unknown origin) using p-nitrophenyl-alpha-D-glucopyranoside as substrate pre-incubated for 10 mins followed by substrate addition and measured after 5 mins by spectrophotometric analysis; format: protein assay
[20] = molecular target: T1, Albumin; experiment: Inhibition of D-glucose glycation in human serum albumin model assessed as reduction in fluorescence intensity incubated for 3 days by UV spectroscopic analysis relative to control; conditions: 72 h, time 3 day
[21] = tested on: Mus musculus; experiment: Antidiabetic activity in Nicotinamide/Streptozotocin induced male Balb/c mouse model assessed as reduction in LDL-Cholesterol level in blood at 63.81 ug/kg, ip treated for 21 days (reference value: 46 +/- 2.30 mg/dL); format: functional; conditions: dose 63.81 µg/kg, time 21 day
[22] = molecular target: T1, Albumin; experiment: Inhibition of D-glucose glycation in human serum albumin model by measuring ketoamine moieties incubated for 3 days by Nitroblue tetrazolium (NBT) reduction assay (reference value: 24.27 nmol/mL); conditions: 72 h, time 3 day
[23] = molecular target: T1, Albumin; experiment: Inhibition of D-glucose glycation in human serum albumin model by measuring absorbance at 279 nm incubated for 3 days by UV spectroscopic analysis (reference value: 0.562); conditions: 72 h, time 3 day
[24] = molecular target: T1, Albumin; experiment: Inhibition of D-glucose glycation in human serum albumin model by measuring absorbance at 279 nm incubated for 26 days by UV spectroscopic analysis (reference value: 2.301); conditions: 624 h, time 26 day
[25] = tested on: Mus musculus; experiment: Antidiabetic activity in Nicotinamide/Streptozotocin induced male Balb/c mouse model assessed as reduction in fasting blood glucose levels at 63.81 ug/kg, ip measured after 21 days by glucometer analysis (reference value: 180.5 +/- 9.02 mg/dl); format: functional; conditions: dose 63.81 µg/kg, time 21 day
[26] = molecular target: T1, Albumin; experiment: Inhibition of D-glucose glycation in human serum albumin model by measuring absorbance at 279 nm incubated for 5 days by UV spectroscopic analysis (reference value: 0.741); conditions: 120 h, time 5 day
[27] = tested on: Mus musculus; experiment: Antidiabetic activity in Nicotinamide/Streptozotocin induced male Balb/c mouse model assessed as relative liver weight at 63.81 ug/kg, ip treated for 21 days (reference value: 0.77 +/- 0.04 mg/g); format: functional; conditions: dose 63.81 µg/kg, time 21 day
[28] = molecular target: T1, Albumin; experiment: Inhibition of D-glucose glycation in human serum albumin by measuring absorbance at 279 nm model incubated for 14 days by UV spectroscopic analysis (reference value: 2.302); conditions: 336 h, time 14 day

N=C(N)NCCC[C@H](N)C(=O)N[C@@H](Cc1c[nH]c2ccccc12)C(=O)N[C@@H](Cc1c[nH]c2ccccc12)C(=O)O (H-Arg-Trp-Trp-OH)
Activity [1]: 29.56 g | Activity [2]: 12.579 nmol/mL | Activity [3]: 53 mg/dL | Ratio [4]: 2.63 | Activity [5]: 30.38 g | Activity [6]: 9.573 nmol/mL | Activity [7]: 97 U/L | Activity [8]: 142.17 nmol/mL | Activity [9]: 135.37 nmol/mL | Activity [10]: 7.2% | OD [11]: 0.482 | Activity [12]: 111.5 mg/dL | Activity [13]: 91.22 nmol/mL | OD [14]: 1.236 | Activity [15]: 12.342 nmol/mL | Activity [16]: 18.433 nmol/mL | Activity [17]: 108 mg/dL | OD [18]: 0.287 | IC50 [19]: 98 µM | inhibition (INH) [20]: 78% | Activity [21]: 31 mg/dL | Activity [22]: 19.383 nmol/mL | OD [23]: 0.287 | OD [24]: 2.301 | Activity [25]: 115 mg/dL | OD [26]: 0.335 | Activity [27]: 1.22 mg/g | OD [28]: 0.443

— ChEMBL document CHEMBL6109039, “Designed and synthesized novel tripeptides targeting diabetes and its related pathologies” (Eur J Med Chem, 2025)
